Literature values as cited in patent publication US4115541A (priority 1975, dated 1978).

Conditions: physical; cited from earlier work

Question: For `[99Tc]` [technitium-99m], which “half-life (radionuclide)” value is on record?
Answer: 6 h
